# What was measured:
# ALK = molecular target: T1, ALK (Homo sapiens, UniProt Q9UM73); test: 33PanQinase Activity Assay, ALK; type: biochemical; conditions: recombinant human protein kinase, 1 μM [γ-33P]-ATP, 30° C. 80 minutes
# T1 construct: made in house; host or cells: Sf9 insect cells (baculovirus)
# Method: (§1) The effect of the thioether derivatives 8a-v and 9a-i was tested on recombinant, human protein kinases. All protein kinases were expressed in Sf9 insect cells as human recombinant GST-fusion proteins or as His-tagged proteins by means of the baculovirus expression system. Protein kinases were purified by affinity chromatography using either GSH-agarose or Ni-NTH-agarose. The purity and identity of each was checked by SDS-PAGE/silver staining and by western blot analysis with specific antibodies.
# (§2) A proprietary protein kinase assay (^33PanQinase® Activity Assay) was used for measuring the kinase activity. All kinase assays were performed in 96-well FlashPlates™ in a 50 μl reaction volume. The assay for all enzymes contained 60 mM HEPES-NaOH, pH 7.5, 3 mM MgCl2, 3 mM MnCl2, 3 μM Na-orthovanadate, 1.2 mM DTT, 50 μg/ml PEG20000 and 1 μM [γ-^33P]-ATP (approx. 5×10^5 cpm per well).
# (§3) The reaction cocktails were incubated at 30° C. for 80 minutes. The reaction was stopped with 50 μl of 2% (v/v) H3PO4, plates were aspirated and washed two times with 200 μl of 0.9% (w/v) NaCl. Incorporation of ^33Pi was determined with a microplate scintillation counter. All assays were performed with a BeckmanCoulter/Sagian robotic system.
# PIM1 = molecular target: T2, PIM1 (Homo sapiens, UniProt P11309); test: 33PanQinase Activity Assay, PIM1; type: biochemical; conditions: recombinant human protein kinase, 1 μM [γ-33P]-ATP, 30° C. 80 minutes
# T2 construct: made in house; host or cells: Sf9 insect cells (baculovirus)
# Method: as §1, §2, §3
# FAK = molecular target: T3, FAK (Homo sapiens, UniProt Q05397); test: 33PanQinase Activity Assay, FAK; type: biochemical; conditions: recombinant human protein kinase, 1 μM [γ-33P]-ATP, 30° C. 80 minutes
# T3 construct: made in house; host or cells: Sf9 insect cells (baculovirus)
# Method: as §1, §2, §3
# IGF1-R = molecular target: T4, IGF1-R (Homo sapiens, UniProt P08069); test: 33PanQinase Activity Assay, IGF1-R; type: biochemical; conditions: recombinant human protein kinase, 1 μM [γ-33P]-ATP, 30° C. 80 minutes
# T4 construct: made in house; host or cells: Sf9 insect cells (baculovirus)
# Method: as §1, §2, §3
# AXL = molecular target: T5, AXL (Homo sapiens, UniProt P30530); test: 33PanQinase Activity Assay, AXL; type: biochemical; conditions: recombinant human protein kinase, 1 μM [γ-33P]-ATP, 30° C. 80 minutes
# T5 construct: made in house; host or cells: Sf9 insect cells (baculovirus)
# T5 sequence (P30530 26-894): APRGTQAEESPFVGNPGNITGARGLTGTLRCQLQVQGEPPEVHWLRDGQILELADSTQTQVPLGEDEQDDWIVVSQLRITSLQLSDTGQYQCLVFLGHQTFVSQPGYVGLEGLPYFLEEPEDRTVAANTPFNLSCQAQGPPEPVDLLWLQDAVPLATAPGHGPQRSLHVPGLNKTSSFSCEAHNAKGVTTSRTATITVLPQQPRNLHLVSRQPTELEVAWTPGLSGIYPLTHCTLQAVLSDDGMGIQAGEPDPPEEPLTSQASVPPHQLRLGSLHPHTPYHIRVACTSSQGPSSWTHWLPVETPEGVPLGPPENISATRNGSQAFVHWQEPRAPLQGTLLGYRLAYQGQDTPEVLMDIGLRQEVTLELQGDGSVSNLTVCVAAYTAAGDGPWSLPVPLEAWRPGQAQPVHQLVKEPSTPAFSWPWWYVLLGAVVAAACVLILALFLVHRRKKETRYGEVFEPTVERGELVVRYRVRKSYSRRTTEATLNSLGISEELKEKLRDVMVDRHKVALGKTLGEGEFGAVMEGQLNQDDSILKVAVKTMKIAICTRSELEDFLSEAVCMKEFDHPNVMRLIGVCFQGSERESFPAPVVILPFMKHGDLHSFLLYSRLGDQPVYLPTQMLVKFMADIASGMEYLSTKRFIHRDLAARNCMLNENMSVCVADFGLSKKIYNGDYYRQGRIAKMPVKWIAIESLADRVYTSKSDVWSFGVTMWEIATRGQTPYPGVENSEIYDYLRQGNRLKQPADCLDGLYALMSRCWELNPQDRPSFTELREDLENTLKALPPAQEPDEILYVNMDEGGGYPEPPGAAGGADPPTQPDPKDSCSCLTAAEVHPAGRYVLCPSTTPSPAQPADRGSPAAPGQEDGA
# Method: as §1, §2, §3
# SRC = molecular target: T6, SRC (Homo sapiens, UniProt P12931); test: 33PanQinase Activity Assay, SRC; type: biochemical; conditions: recombinant human protein kinase, 1 μM [γ-33P]-ATP, 30° C. 80 minutes
# T6 construct: made in house; host or cells: Sf9 insect cells (baculovirus)
# Method: as §1, §2, §3
# PRK1 = molecular target: T7, PRK1 (Homo sapiens, UniProt Q16512); test: 33PanQinase Activity Assay, PRK1; type: biochemical; conditions: recombinant human protein kinase, 1 μM [γ-33P]-ATP, 30° C. 80 minutes
# T7 construct: made in house; host or cells: Sf9 insect cells (baculovirus)
# Method: as §1, §2, §3
# VEGF-R2 = molecular target: T8, VEGF-R2 (Homo sapiens, UniProt P35968); test: 33PanQinase Activity Assay, VEGF-R2; type: biochemical; conditions: recombinant human protein kinase, 1 μM [γ-33P]-ATP, 30° C. 80 minutes
# T8 construct: made in house; host or cells: Sf9 insect cells (baculovirus)
# Method: as §1, §2, §3
# [1] = molecular target: T9, ALK, AXL, FAK, KIT wt, IGF1-R, PIM1, PRK1, SRC and VEGF-R2; test: 33PanQinase Activity Assay, kinase panel summary; type: biochemical, human; conditions: at least two kinases of the panel; read-out: IC50 values on at least two kinases from at least two different molecular mechanisms of tumor progression
# T9 construct: other: at le; fused on or other part: GST or His tag
# Method: as §1, §2, §3
# Thioether derivatives 8a-v and 9a-i show excellent IC50 values.
# T2 sequence (P11309 whole entry): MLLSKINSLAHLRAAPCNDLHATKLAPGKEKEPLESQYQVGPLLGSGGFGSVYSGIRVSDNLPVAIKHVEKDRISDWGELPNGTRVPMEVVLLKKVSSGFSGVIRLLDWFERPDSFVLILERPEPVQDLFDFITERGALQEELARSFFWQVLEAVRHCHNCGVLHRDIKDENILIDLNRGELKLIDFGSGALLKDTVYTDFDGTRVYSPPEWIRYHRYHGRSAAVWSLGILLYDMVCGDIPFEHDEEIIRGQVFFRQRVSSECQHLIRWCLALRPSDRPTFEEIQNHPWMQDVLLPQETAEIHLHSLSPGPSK
# T4 sequence (P08069 31-1367): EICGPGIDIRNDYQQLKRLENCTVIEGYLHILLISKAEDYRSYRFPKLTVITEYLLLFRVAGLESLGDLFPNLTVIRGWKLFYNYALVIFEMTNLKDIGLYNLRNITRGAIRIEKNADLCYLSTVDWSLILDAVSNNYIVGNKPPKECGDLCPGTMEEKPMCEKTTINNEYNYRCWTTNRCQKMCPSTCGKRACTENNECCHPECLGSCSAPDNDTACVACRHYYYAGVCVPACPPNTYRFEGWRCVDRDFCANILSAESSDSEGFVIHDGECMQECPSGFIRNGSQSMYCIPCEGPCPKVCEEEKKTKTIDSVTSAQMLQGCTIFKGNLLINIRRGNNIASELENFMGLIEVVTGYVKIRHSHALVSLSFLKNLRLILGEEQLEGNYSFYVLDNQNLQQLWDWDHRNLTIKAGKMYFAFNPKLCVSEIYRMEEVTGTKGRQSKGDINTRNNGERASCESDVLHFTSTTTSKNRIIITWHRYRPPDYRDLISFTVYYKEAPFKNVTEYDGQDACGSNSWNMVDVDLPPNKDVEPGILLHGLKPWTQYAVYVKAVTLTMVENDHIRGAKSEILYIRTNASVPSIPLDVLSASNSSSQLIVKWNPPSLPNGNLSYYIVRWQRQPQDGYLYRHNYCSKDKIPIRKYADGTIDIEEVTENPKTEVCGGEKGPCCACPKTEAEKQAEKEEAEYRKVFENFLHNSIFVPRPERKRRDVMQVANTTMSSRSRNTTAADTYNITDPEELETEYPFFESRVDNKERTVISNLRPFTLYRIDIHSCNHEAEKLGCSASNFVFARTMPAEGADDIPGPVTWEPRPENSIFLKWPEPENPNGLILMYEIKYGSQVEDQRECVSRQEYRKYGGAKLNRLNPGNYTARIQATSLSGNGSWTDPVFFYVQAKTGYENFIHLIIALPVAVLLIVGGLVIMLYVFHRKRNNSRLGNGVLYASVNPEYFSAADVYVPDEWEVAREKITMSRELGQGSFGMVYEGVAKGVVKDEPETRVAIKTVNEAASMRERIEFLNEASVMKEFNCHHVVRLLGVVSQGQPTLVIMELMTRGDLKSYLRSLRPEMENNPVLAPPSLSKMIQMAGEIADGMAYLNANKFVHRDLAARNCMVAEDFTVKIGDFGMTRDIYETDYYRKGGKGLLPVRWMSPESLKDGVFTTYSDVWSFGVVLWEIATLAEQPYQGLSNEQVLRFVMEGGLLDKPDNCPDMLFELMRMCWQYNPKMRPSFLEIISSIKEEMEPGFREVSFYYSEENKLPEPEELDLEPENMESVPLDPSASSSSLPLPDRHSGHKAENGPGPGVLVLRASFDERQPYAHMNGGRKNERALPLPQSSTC
# T1 sequence (Q9UM73 19-1620): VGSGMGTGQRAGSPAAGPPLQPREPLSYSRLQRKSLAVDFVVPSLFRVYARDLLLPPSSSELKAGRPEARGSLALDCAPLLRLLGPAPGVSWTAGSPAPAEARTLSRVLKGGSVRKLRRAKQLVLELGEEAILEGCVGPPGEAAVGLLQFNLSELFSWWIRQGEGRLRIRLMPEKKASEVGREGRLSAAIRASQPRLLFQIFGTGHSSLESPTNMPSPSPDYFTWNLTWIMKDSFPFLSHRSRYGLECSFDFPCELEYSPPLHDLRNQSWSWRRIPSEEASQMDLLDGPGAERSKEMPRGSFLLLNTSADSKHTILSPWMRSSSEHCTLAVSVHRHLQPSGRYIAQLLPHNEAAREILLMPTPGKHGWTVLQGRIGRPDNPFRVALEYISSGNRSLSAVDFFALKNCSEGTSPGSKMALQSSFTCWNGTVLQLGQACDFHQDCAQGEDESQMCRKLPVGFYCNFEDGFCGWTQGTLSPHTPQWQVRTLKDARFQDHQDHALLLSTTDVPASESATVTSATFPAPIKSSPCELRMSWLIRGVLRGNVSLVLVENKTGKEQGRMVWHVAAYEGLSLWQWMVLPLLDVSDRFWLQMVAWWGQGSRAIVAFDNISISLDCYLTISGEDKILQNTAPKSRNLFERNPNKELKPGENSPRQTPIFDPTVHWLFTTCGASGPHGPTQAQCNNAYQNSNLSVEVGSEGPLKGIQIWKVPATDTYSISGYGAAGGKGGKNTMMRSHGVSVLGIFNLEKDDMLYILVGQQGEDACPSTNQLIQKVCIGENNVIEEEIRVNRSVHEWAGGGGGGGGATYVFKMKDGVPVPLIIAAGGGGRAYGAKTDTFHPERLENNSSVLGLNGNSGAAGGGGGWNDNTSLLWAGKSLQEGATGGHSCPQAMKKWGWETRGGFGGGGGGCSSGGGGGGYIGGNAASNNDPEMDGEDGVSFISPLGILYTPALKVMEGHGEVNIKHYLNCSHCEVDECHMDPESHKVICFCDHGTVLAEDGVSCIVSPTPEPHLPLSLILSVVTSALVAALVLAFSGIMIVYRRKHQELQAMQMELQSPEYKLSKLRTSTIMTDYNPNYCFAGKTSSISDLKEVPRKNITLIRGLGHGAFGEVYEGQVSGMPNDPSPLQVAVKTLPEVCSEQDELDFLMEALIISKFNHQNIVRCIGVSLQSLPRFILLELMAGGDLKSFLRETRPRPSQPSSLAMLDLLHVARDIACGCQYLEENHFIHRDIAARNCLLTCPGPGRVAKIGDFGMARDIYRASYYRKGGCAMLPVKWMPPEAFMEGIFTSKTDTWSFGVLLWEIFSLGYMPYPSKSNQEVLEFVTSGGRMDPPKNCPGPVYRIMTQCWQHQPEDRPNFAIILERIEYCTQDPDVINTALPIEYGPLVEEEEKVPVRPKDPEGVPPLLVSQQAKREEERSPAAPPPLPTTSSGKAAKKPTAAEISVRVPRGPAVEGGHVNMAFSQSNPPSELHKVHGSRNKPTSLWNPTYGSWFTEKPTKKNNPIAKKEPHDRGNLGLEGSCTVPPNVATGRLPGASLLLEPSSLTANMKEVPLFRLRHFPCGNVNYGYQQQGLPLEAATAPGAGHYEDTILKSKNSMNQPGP
# T7 sequence (Q16512 whole entry): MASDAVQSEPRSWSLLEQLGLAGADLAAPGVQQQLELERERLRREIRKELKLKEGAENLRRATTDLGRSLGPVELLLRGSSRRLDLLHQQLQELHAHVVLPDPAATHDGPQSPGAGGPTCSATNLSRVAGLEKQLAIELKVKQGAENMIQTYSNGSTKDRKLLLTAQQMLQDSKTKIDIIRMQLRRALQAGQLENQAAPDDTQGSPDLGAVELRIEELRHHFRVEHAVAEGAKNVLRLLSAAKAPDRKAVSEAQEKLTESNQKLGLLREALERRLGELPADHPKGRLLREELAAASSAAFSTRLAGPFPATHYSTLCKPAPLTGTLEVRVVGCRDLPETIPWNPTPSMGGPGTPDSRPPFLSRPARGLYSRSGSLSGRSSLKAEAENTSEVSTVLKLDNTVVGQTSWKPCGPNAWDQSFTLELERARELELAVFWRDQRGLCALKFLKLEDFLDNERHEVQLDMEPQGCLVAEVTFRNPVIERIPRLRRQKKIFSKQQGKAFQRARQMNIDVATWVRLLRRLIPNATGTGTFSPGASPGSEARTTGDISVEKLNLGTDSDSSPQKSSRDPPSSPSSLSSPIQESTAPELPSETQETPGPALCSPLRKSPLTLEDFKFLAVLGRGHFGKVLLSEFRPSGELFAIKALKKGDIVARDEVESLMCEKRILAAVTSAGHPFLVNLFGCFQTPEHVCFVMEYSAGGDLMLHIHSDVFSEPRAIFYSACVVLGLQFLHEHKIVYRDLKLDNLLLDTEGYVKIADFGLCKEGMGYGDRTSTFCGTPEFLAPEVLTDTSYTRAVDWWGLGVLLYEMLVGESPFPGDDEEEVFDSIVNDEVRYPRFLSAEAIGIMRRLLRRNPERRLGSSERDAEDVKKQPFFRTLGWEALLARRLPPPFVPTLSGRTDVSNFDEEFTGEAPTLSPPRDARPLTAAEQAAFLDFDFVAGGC
# T6 sequence (P12931 whole entry): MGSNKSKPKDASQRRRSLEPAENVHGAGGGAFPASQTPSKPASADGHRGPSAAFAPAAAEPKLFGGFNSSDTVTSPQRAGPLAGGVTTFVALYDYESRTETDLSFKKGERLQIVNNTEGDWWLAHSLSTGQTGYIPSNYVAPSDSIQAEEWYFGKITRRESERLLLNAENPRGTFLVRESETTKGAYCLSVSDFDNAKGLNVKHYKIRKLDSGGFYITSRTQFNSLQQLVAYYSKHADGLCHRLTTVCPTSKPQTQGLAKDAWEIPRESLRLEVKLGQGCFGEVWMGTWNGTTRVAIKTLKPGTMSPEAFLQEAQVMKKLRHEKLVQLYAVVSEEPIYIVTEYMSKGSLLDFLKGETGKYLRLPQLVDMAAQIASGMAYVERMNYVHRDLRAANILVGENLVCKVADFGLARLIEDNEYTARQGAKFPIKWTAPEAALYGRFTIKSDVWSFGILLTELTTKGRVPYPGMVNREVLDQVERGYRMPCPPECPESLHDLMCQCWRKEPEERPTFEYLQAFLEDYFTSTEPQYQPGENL
Structure (SMILES),IC50 (ALK) [µM],IC50 (PIM1) [µM],IC50 (FAK) [µM],melting point [°C],IC50 (IGF1-R) [µM],IC50 (AXL) [µM],IC50 (SRC) [µM],IC50 (PRK1) [µM],IC50 (VEGF-R2) [µM],IC50 [1] [µM]
"Fc1ccc(-c2cc3ncnc(Sc4ccc(C(F)(F)F)cc4)c3s2)cc1 [Compound 8h, 6-(4-Fluorophenyl)-4-{[4-(trifluoromethyl)phenyl]thio}thieno[3,2-d]pyrimidine]",1.03,11.3,2.04,172 to 175,1.37,2.94,0.681,33.9,1.84,
"Fc1ccc(-c2cc3ncnc(Sc4ncc[nH]4)c3s2)cc1 [Compound 8i, 4-[(1H-imidazol-2-yl)thio]-6-(4-fluorophenyl)thieno[3,2-d]pyrimidine]",23.7,11.1,22.1,204 to 206,23.1,41.5,11,86.1,20.8,
"Fc1ccc(-c2cc3ncnc(Sc4nnc(-c5ccc(C(F)(F)F)cc5)o4)c3s2)cc1 [Compound 8e, 2-{[6-(4-Fluorophenyl)thieno[3,2-d]pyrimidin-4-yl]thio}-5-[4-(trifluoromethyl)-phenyl]-1,3,4-oxadiazole]",0.977,8.68,1.96,233 to 235,1.03,2.51,0.54,15.4,1.41,
"Fc1ccc(-c2cc3ncnc(Sc4nnc(Cc5ccccc5)o4)c3s2)cc1 [Compound 8l, 2-Benzyl-5-{[6-(4-fluorophenyl)thieno[3,2-d]pyrimidin-4-yl]thio}-1,3,4-oxadiazole]",1.15,13.7,3.01,,1.5,3.14,0.875,38,2.24,
"COc1cccc(Cc2nnc(Sc3ncnc4cc(-c5ccc(F)cc5)sc34)o2)c1 [Compound 8f, 2-{[6-(4-Fluorophenyl)thieno[3,2-d]pyrimidin-4-yl]thio}-5-(3-methoxybenzyl)-1,3,4-oxadiazole]",0.651,10.4,1.28,166 to 168,1.27,3.2,0.487,14.6,1.47,
"Fc1ccc(-c2cc3ncnc(Sc4ccccn4)c3s2)cc1 [Compound 8j, 6-(4-Fluorophenyl)-4-(pyridin-2-ylthio)thieno[3,2-d]pyrimidine]",6.63,,9.08,172 to 174,9.15,22.6,6.35,47.3,9.69,
"FC(F)(F)c1ccc(-c2nnc(Sc3ncnc4[nH]c(-c5ccccc5)nc34)o2)cc1 [Compound 8v, 2-[(8-Phenyl-9H-purin-6-yl)thio]-5-[4-(trifluoromethyl)phenyl]-1,3,4-oxadiazole]",0.86,,0.93,256 to 257,,> 100,0.7,,,< 10
